Results: patent US20130178597A1, “POLYIMIDE PRECURSOR, POLYIMIDE, AND MATERIALS TO BE USED IN PRODUCING SAME” (UBE INDUSTRIES, LTD., priority 2010, published 2013)

What was measured:
[1] = Light transmittance at 400 nm of s-BPDA powder, 10 mass % in 2 N aqueous sodium hydroxide; assay type: physicochemical; settings: light path 1 cm
Protocol: (§1) A predetermined amount of s-BPDA powder was dissolved in a 2 N aqueous solution of sodium hydroxide to obtain a 10 mass % aqueous solution. Using a MCPD-300 manufactured by Otsuka Electronics Co., Ltd., and a standard cell having a light path length of 1 cm, the light transmittance at 400 nm of the s-BPDA solution was measured using the 2 N aqueous solution of sodium hydroxide as a blank.

[2] = Solubility of s-BPDA at 25° C. in solvent; settings: s-BPDA in the solvent used in the example
Protocol: The non-dissolved s-BPDA was filtered through filter paper 5A manufactured by Advantec, Inc. to obtain s-BPDA saturated solution. 5 g of the s-BPDA saturated solution was charged into an aluminum dish, heated for 1 hour at 80° C., and then heated for 1 hour at 200° C. The solubility was calculated by determining the mass of s-BPDA remaining in the saturated solution based on the residue after heating.

[3] = Light transmittance at 400 nm of a-BPDA powder, 10 mass % in 2 N aqueous sodium hydroxide; assay type: physicochemical; settings: light path 1 cm
[4] = Light transmittance of solvent at 400 nm; assay type: physicochemical; settings: light path 1 cm, water as a blank
Protocol: Using a MCPD-300 manufactured by Otsuka Electronics Co., Ltd., and a standard cell having a light path length of 1 cm, the light transmittance of a solvent at 400 nm was measured using water as a blank.

[5] = Light transmittance of solvent at 400 nm after heating with refluxing; assay type: physicochemical; settings: heated to reflux for 3 hours under nitrogen atmosphere
Protocol: For light transmittance after heating with refluxing, measurement was carried out using a solvent that had been heated to reflux for 3 hours under nitrogen atmosphere having oxygen concentration of 200 ppm or less.

[6] = Solubility of i-BPDA at 25° C. in solvent; assay type: physicochemical; settings: i-BPDA in the solvent used in the example
Protocol: The non-dissolved i-BPDA was filtered through filter paper 5A manufactured by Advantec, Inc. to obtain i-BPDA saturated solution. 5 g of the i-BPDA saturated solution was charged into an aluminum dish, heated for 1 hour at 80° C., and then heated for 1 hour at 200° C. The solubility was calculated by determining the mass of i-BPDA remaining in the saturated solution based on the residue after heating.

[7] = Light transmittance at 400 nm of i-BPDA powder, 10 mass % in 2 N aqueous sodium hydroxide; assay type: physicochemical; settings: light path 1 cm
Protocol: as §1, with “i-BPDA” for “s-BPDA”

[8] = Light transmittance at 400 nm of trans-1,4-diaminocyclohexane powder, 10 mass % in pure water; assay type: physicochemical; settings: light path 1 cm
Protocol: as §1, with “trans-1,4-diaminocyclohexane” for “s-BPDA”, “pure water” for “a 2 N aqueous solution of sodium hydroxide”, “pure water” for “the 2 N aqueous solution of sodium hydroxide”

## O=C1OC(=O)c2cc(-c3ccc4c(c3)C(=O)OC4=O)ccc21 [Example D1, 3,3′,4,4′-Biphenyltetracarboxylic dianhydride]
[1]
  light transmittance of obtained s-BPDA powder at 400 nm: 81%
[2]
  Solubility of used solvent at 25° C.: 1.3 g/100 g

## O=C1OC(=O)c2cc(-c3ccc4c(c3)C(=O)OC4=O)ccc21 [Example D3, 3,3′,4,4′-Biphenyltetracarboxylic dianhydride]
[1]
  light transmittance of obtained s-BPDA powder at 400 nm: 82%
[2]
  Solubility of used solvent at 25° C.: 2.3 g/100 g

## O=C1OC(=O)c2cc(-c3ccc4c(c3)C(=O)OC4=O)ccc21 [Example D8, 3,3′,4,4′-Biphenyltetracarboxylic dianhydride]
[1]
  light transmittance of obtained s-BPDA powder at 400 nm: 91%

## O=C1OC(=O)c2cc(-c3cccc4c3C(=O)OC4=O)ccc21 [Example C5, 2,3,3′,4′-Biphenyltetracarboxylic dianhydride]
[3]
  light transmittance at 400 nm (a-BPDA powder): 89%

## O=C1OC(=O)c2cc(-c3cccc4c3C(=O)OC4=O)ccc21 [Example C4, 2,3,3′,4′-Biphenyltetracarboxylic dianhydride]
[3]
  light transmittance at 400 nm (a-BPDA powder): 92%

## CN1CCCC1=O [NMP (99.96%), N-methyl-2-pyrrolidone]
[4]
  Light Transmittance at 400 nm (solvent): 89%
[5]
  Light Transmittance at 400 nm after reflux (solvent): 41%

## CN1CCCC1=O [NMP (99.62%), N-methyl-2-pyrrolidone]
[4]
  Light Transmittance at 400 nm (solvent): 88%
[5]
  Light Transmittance at 400 nm after reflux (solvent): 0.1%

## O=C1OC(=O)c2c1cccc2-c1cccc2c1C(=O)OC2=O [Comparative Example F2, 2,2′,3,3′-Biphenyltetracarboxylic dianhydride, reference compound]
[6]
  Solubility at 25° C.: <0.1 g/100 g
[7]
  Light Transmittance at 400 nm (i-BPDA): 79%

## O=C1OC(=O)c2c1cccc2-c1cccc2c1C(=O)OC2=O [Example F2, 2,2′,3,3′-Biphenyltetracarboxylic dianhydride]
[6]
  Solubility at 25° C.: 4.4 g/100 g
[7]
  Light Transmittance at 400 nm (i-BPDA): 92%

## O=C1OC(=O)c2cc(-c3ccc4c(c3)C(=O)OC4=O)ccc21 [Example D4, 3,3′,4,4′-Biphenyltetracarboxylic dianhydride]
[1]
  light transmittance of obtained s-BPDA powder at 400 nm: 78%

## O=C1OC(=O)c2cc(-c3ccc4c(c3)C(=O)OC4=O)ccc21 [Example D2, 3,3′,4,4′-Biphenyltetracarboxylic dianhydride]
[1]
  light transmittance of obtained s-BPDA powder at 400 nm: 81%

## O=C1OC(=O)c2cc(-c3ccc4c(c3)C(=O)OC4=O)ccc21 [Comparative Example D4, 3,3′,4,4′-Biphenyltetracarboxylic dianhydride, reference compound]
[1]
  light transmittance of obtained s-BPDA powder at 400 nm: 72%

## O=C1OC(=O)c2cc(-c3cccc4c3C(=O)OC4=O)ccc21 [Comparative Example C4, 2,3,3′,4′-Biphenyltetracarboxylic dianhydride, reference compound]
[3]
  light transmittance at 400 nm (a-BPDA powder): 84%

## O=C1OC(=O)c2cc(-c3cccc4c3C(=O)OC4=O)ccc21 [Example C1, 2,3,3′,4′-Biphenyltetracarboxylic dianhydride]
[3]
  light transmittance at 400 nm (a-BPDA powder): 98%

## O=C1OC(=O)c2c1cccc2-c1cccc2c1C(=O)OC2=O [Comparative Example F3, 2,2′,3,3′-Biphenyltetracarboxylic dianhydride, reference compound]
[7]
  Light Transmittance at 400 nm (i-BPDA): 66%

## O=C1OC(=O)c2cc(-c3ccc4c(c3)C(=O)OC4=O)ccc21 [Example D5, 3,3′,4,4′-Biphenyltetracarboxylic dianhydride]
[2]
  Solubility of used solvent at 25° C.: 0.1 g/100 g

## O=C1OC(=O)c2cc(-c3ccc4c(c3)C(=O)OC4=O)ccc21 [Example D6, 3,3′,4,4′-Biphenyltetracarboxylic dianhydride]
[2]
  Solubility of used solvent at 25° C.: 0.4 g/100 g

## N[C@H]1CC[C@H](N)CC1 [Example E2, trans-1,4-diaminocyclohexane]
[8]
  Light Transmittance at 400 nm (trans-1,4-diaminocyclohexane powder): 96%

## O=C1OC(=O)c2cc(-c3ccc4c(c3)C(=O)OC4=O)ccc21 [Comparative Example D2, 3,3′,4,4′-Biphenyltetracarboxylic dianhydride, reference compound]
[1]
  light transmittance of obtained s-BPDA powder at 400 nm: 75%
[2]
  Solubility of used solvent at 25° C.: <0.1 g/100 g

## O=C1OC(=O)c2cc(-c3cccc4c3C(=O)OC4=O)ccc21 [Example C2, 2,3,3′,4′-Biphenyltetracarboxylic dianhydride]
[3]
  light transmittance at 400 nm (a-BPDA powder): 97%

## O=C1OC(=O)c2cc(-c3cccc4c3C(=O)OC4=O)ccc21 [Comparative Example C2, 2,3,3′,4′-Biphenyltetracarboxylic dianhydride, reference compound]
[3]
  light transmittance at 400 nm (a-BPDA powder): 81%

## O=C1OC(=O)c2c1cccc2-c1cccc2c1C(=O)OC2=O [Example F7, 2,2′,3,3′-Biphenyltetracarboxylic dianhydride]
[7]
  Light Transmittance at 400 nm (i-BPDA): 89%

## O=C1OC(=O)c2cc(-c3ccc4c(c3)C(=O)OC4=O)ccc21 [Comparative Example D5, 3,3′,4,4′-Biphenyltetracarboxylic dianhydride, reference compound]
[1]
  light transmittance of obtained s-BPDA powder at 400 nm: 3%

## O=C1OC(=O)c2cc(-c3ccc4c(c3)C(=O)OC4=O)ccc21 [Example D7, 3,3′,4,4′-Biphenyltetracarboxylic dianhydride]
[1]
  light transmittance of obtained s-BPDA powder at 400 nm: 79%
[2]
  Solubility of used solvent at 25° C.: 0.3 g/100 g

## O=C1OC(=O)c2c1cccc2-c1cccc2c1C(=O)OC2=O [Example F5, 2,2′,3,3′-Biphenyltetracarboxylic dianhydride]
[7]
  Light Transmittance at 400 nm (i-BPDA): 91%

## O=C1OC(=O)c2c1cccc2-c1cccc2c1C(=O)OC2=O [Example F6, 2,2′,3,3′-Biphenyltetracarboxylic dianhydride]
[7]
  Light Transmittance at 400 nm (i-BPDA): 95%

## N[C@H]1CC[C@H](N)CC1 [Referential Example E1, trans-1,4-diaminocyclohexane]
[8]
  Light Transmittance at 400 nm (trans-1,4-diaminocyclohexane powder): 86%

## O=C1OC(=O)c2cc(-c3ccc4c(c3)C(=O)OC4=O)ccc21 [Comparative Example D3, 3,3′,4,4′-Biphenyltetracarboxylic dianhydride, reference compound]
[1]
  light transmittance of obtained s-BPDA powder at 400 nm: 75%
[2]
  Solubility of used solvent at 25° C.: <0.1 g/100 g

## N[C@H]1CC[C@H](N)CC1 [Referential Example E2, trans-1,4-diaminocyclohexane]
[8]
  Light Transmittance at 400 nm (trans-1,4-diaminocyclohexane powder): 89%

## O=C1OC(=O)c2cc(-c3cccc4c3C(=O)OC4=O)ccc21 [Comparative Example C1, 2,3,3′,4′-Biphenyltetracarboxylic dianhydride, reference compound]
[3]
  light transmittance at 400 nm (a-BPDA powder): 77%

## O=C1OC(=O)c2c1cccc2-c1cccc2c1C(=O)OC2=O [Example F3, 2,2′,3,3′-Biphenyltetracarboxylic dianhydride]
[6]
  Solubility at 25° C.: 6.8 g/100 g
[7]
  Light Transmittance at 400 nm (i-BPDA): 93%

## O=C1OC(=O)c2c1cccc2-c1cccc2c1C(=O)OC2=O [Comparative Example F1, 2,2′,3,3′-Biphenyltetracarboxylic dianhydride, reference compound]
[7]
  Light Transmittance at 400 nm (i-BPDA): 79%

## O=C1OC(=O)c2cc(-c3ccc4c(c3)C(=O)OC4=O)ccc21 [Comparative Example D1, 3,3′,4,4′-Biphenyltetracarboxylic dianhydride, reference compound]
[1]
  light transmittance of obtained s-BPDA powder at 400 nm: 75%

## O=C1OC(=O)c2c1cccc2-c1cccc2c1C(=O)OC2=O [Example F4, 2,2′,3,3′-Biphenyltetracarboxylic dianhydride]
[7]
  Light Transmittance at 400 nm (i-BPDA): 93%

## O=C1OC(=O)c2c1cccc2-c1cccc2c1C(=O)OC2=O [Example F1, 2,2′,3,3′-Biphenyltetracarboxylic dianhydride]
[6]
  Solubility at 25° C.: 3.2 g/100 g
[7]
  Light Transmittance at 400 nm (i-BPDA): 91%

## O=C1OC(=O)c2cc(-c3cccc4c3C(=O)OC4=O)ccc21 [Example C3, 2,3,3′,4′-Biphenyltetracarboxylic dianhydride]
[3]
  light transmittance at 400 nm (a-BPDA powder): 94%
